According to patent US12365687B2 (Hoffmann-La Roche Inc., priority 2021, dated 2025):

Assays:
[1] = target: human GABAA α5β2γ1 receptor (Homo sapiens (Human), UniProt P31644+Q8N1C3); test: Radioligand binding assay for γ1-containing GABAA subtypes, [3H]RO7239181 competition (α5β2γ1)
[2] = target: human GABAA α2β2γ1 receptor (Homo sapiens (Human), UniProt P47869+Q8N1C3); test: Radioligand binding assay for γ1-containing GABAA subtypes, [3H]RO7239181 competition (α2β2γ1)
[3] = target: human GABAA α1β3γ2 receptor (Homo sapiens (Human), UniProt P14867+P18507); test: Radioligand binding assay for γ2-containing GABAA subtypes, [3H]Flumazenil competition (α1β3γ2); details: for γ2/γ1 Selectivity Ratio: Ki α1β3γ2 (nM)/Ki α2β2γ1 (nM); for LogSel: Log[Ki α1β3γ2 (nM)/Ki α2β2γ1 (nM)]
[4] = target: α2β2γ1 GABAA receptor subtype (Homo sapiens (Human), UniProt P47869+Q8N1C3); test: Two-electrode voltage clamp electrophysiology in Xenopus oocytes expressing GABAA receptors (modulation of GABA EC20 current); assay type: cell-based; details: for Efficacy (GABA)%: % modulation of GABA EC20 = 100*(Fold increase-1), α2β2γ1 oocytes, compound at approx. 30-fold Ki; for Fold increase h-GABA-A α2β2γ1 oocyte @ 30-fold Ki: Xenopus oocytes expressing α2β2γ1, compound at approx. 30-fold its Ki α2β2γ1, GABA EC20 current
Outline: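 Two-electrode voltage clamp at −80 mV, room temperature, 3-5 days after mRNA injection into oocytes. GABA applied at EC20 for 1.5 min, twice, with compound during second application; at least 3 oocytes per concentration. Efficacy = extremum of point-by-point current ratio, expressed as 100×(fold increase−1).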

[5] = Ki h-GABAA α2β2γ1, [3H]RO7239181 competition binding, human GABAA α2β2γ1
[6] = Ki h-GABAA α2β2γ1, displacement of [3H]RO7239181, membranes of HEK293F cells expressing human receptors, means of two determinations

SMILES	Ki [1]	Ki [2, 5]	Ki [2, 6]	Ki [3]	γ2/γ1 Selectivity Ratio [3]	LogSel [3]	Efficacy (GABA)% [4]	Fold increase h-GABA-A α2β2γ1 oocyte @ 30-fold Ki [4]
C[C@@H]1N=C(c2ncccc2F)c2c(ccc(C(F)(F)F)c2Cl)-n2cc(C(=O)N3CC(F)C3)nc21 [Example 161, (3-fluoroazetidin-1-yl)-[(4S)-7-chloro-6-(3-fluoro-2-pyridyl)-4-methyl-8-(trifluoromethyl)-4H-imidazo[1,2-a][1,4]benzodiazepin-2-yl]methanone]	21.3 nM	72.8 nM	72.7 nM	> 30000 nM	412.4	2.62	165%	2.65
COC1CN(C(=O)c2nc3n(n2)-c2ccc(Cl)c(Cl)c2C(c2ncccc2F)=NC3)C1 [Example 62, [7,8-dichloro-6-(3-fluoro-2-pyridyl)-4H-[1,2,4]triazolo[1,5-a][1,4]benzodiazepin-2-yl]-(3-methoxyazetidin-1-yl)methanone]	3.7 nM	9 nM	9 nM	773 nM	85.7	1.93	93%	1.93
C[C@@H]1N=C(c2ncccc2F)c2c(ccc(C(F)(F)F)c2Cl)-n2cc(C(=O)NC[C@@H](C)O)nc21 [Example 157, (4S)-7-chloro-6-(3-fluoro-2-pyridyl)-4-methyl-N-[(2R)-2-hydroxypropyl]-8-(trifluoromethyl)-4H-imidazo[1,2-a][1,4]benzodiazepine-2-carboxamide]	13.4 nM	60.1 nM	60 nM	11100 nM	185.8	2.27	191%	2.91
C[C@@H]1N=C(c2ncccc2F)c2c(ccc(C(F)(F)F)c2Cl)-n2cc(C(=O)N[C@H]3C[C@@H](O)C3)nc21 [Example 166, (4S)-7-chloro-6-(3-fluoro-2-pyridyl)-N-(cis-3-hydroxycyclobutyl)-4-methyl-8-(trifluoromethyl)-4H-imidazo[1,2-a][1,4]benzodiazepine-2-carboxamide]	9.14 nM	46.5 nM	43.4 nM	10200 nM	234.5	2.37	184%	2.84
C[C@@H]1N=C(c2c(F)cccc2F)c2c(ccc(Cl)c2Cl)-n2ncnc21 [Example 15, (4S)-7,8-dichloro-6-(2,6-difluorophenyl)-4-methyl-4H-[1,2,4]triazolo[1,5-a][1,4]benzodiazepine]	0.4 nM	6 nM	6 nM	278 nM	46.3	1.67	62%	1.62
C[C@@H]1N=C(c2c(F)cccc2F)c2c(ccc(C(F)(F)F)c2Cl)-n2nc(NC(=O)N3C4CC3CS(=O)(=O)C4)nc21 (single isomer, unassigned) [Example 134]	2.36 nM	19.3 nM	19.3 nM	1480 nM	76.7	1.88	101%	2.01
C[C@@H]1N=C(c2ncccc2F)c2c(ccc(C(F)(F)F)c2Cl)-n2cc(C(=O)N3CC(C)(O)C3)nc21 [Example 160, (3-hydroxy-3-methyl-azetidin-1-yl)-[(4S)-7-chloro-6-(3-fluoro-2-pyridyl)-4-methyl-8-(trifluoromethyl)-4H-imidazo[1,2-a][1,4]benzodiazepin-2-yl]methanone]	19.2 nM	66.4 nM	66.3 nM	13300 nM	201.1	2.30	177%	2.77
C[C@@H]1N=C(c2c(F)cccc2F)c2c(ccc(Cl)c2Cl)-n2cc(C(=O)N3CC(C#N)C3)nc21 [Example 71, 1-[(4S)-7,8-dichloro-6-(2,6-difluorophenyl)-4-methyl-4H-imidazo[1,2-a][1,4]benzodiazepine-2-carbonyl]azetidine-3-carbonitrile]	1.84 nM	11.9 nM	11.9 nM	389 nM	32.8	1.52	51%	1.51
C[C@@H]1N=C(c2c(F)cccc2F)c2c(ccc(Cl)c2Cl)-n2nc(C(=O)N3CC(C#N)C3)nc21 [Example 41, 1-[(4S)-7,8-dichloro-6-(2,6-difluorophenyl)-4-methyl-4H-[1,2,4]triazolo[1,5-a][1,4]benzodiazepine-2-carbonyl]azetidine-3-carbonitrile]	0.74 nM	3.3 nM	3.28 nM	389 nM	118.6	2.07	67%	1.67
O=C(NC1COC1)c1nc2n(n1)-c1ccc(Cl)c(Cl)c1C(c1c(F)cccc1F)=NC2 [Example 10, 7,8-dichloro-6-(2,6-difluorophenyl)-N-(oxetan-3-yl)-4H-[1,2,4]triazolo[1,5-a][1,4]benzodiazepine-2-carboxamide]	0.79 nM	3.1 nM	3.06 nM	445 nM	145.5	2.16	70%	1.70
OCc1cn2c(n1)CN=C(c1c(F)cccc1F)c1c-2ccc(Br)c1Cl [Example 4, (8-bromo-7-chloro-6-(2,6-difluorophenyl)-4H-benzo[f]imidazo[1,2-a][1,4]diazepin-2-yl)methanol]	1.14 nM	8.8 nM	8.8 nM	216 nM	24.4	1.39	105%	2.05
Cc1nc2n(n1)-c1ccc(C(F)(F)F)c(Cl)c1C(c1c(F)cccc1F)=N[C@H]2C [Example 29, (4S)-7-chloro-6-(2,6-difluorophenyl)-2,4-dimethyl-8-(trifluoromethyl)-4H-[1,2,4]triazolo[1,5-a][1,4]benzodiazepine]	0.69 nM	10 nM	10 nM	1090 nM	109.1	2.04	80%	1.80
COC1CN(C(=O)c2nc3n(n2)-c2ccc(Cl)c(Cl)c2C(c2c(F)cccc2F)=NC3)C1 [Example 11, [7,8-dichloro-6-(2,6-difluorophenyl)-4H-[1,2,4]triazolo[1,5-a][1,4]benzodiazepin-2-yl]-(3-methoxyazetidin-1-yl)methanone]	0.84 nM	2.7 nM	2.71 nM	451 nM	166.3	2.22	62%	1.62
C[C@@H]1N=C(c2ncccc2F)c2c(ccc(Cl)c2Cl)-n2nc(C(=O)N3CC4(COC4)C3)nc21 [Example 102, [(4S)-7,8-dichloro-6-(3-fluoro-2-pyridyl)-4-methyl-4H-[1,2,4]triazolo[1,5-a][1,4]benzodiazepin-2-yl]-(2-oxa-6-azaspiro[3.3]heptan-6-yl)methanone]	6.83 nM	51.5 nM	51.5 nM	7250 nM	140.7	2.15	143%	2.43
CC(=O)NCc1nc2n(n1)-c1ccc(Cl)c(Cl)c1C(c1c(F)cccc1F)=N[C@H]2C [Example 67, N-[[(4S)-7,8-dichloro-6-(2,6-difluorophenyl)-4-methyl-4H-[1,2,4]triazolo[1,5-a][1,4]benzodiazepin-2-yl]methyl]acetamide]	0.79 nM	5.2 nM	5.2 nM	503 nM	96.5	1.98	47%	1.47
CCNC(=O)c1nc2n(n1)-c1ccc(Cl)c(Cl)c1C(c1c(F)cccc1F)=N[C@H]2C [Example 64, (4S)-7,8-dichloro-6-(2,6-difluorophenyl)-N-ethyl-4-methyl-4H-[1,2,4]triazolo[1,5-a][1,4]benzodiazepine-2-carboxamide]	1.16 nM	5.4 nM	5.4 nM	889 nM	165.6	2.22	75%	1.75
C[C@@H]1N=C(c2ncccc2F)c2c(ccc(Cl)c2Cl)-n2nc(C(=O)N3CC[C@H](F)C3)nc21 [Example 79, [(4S)-7,8-dichloro-6-(3-fluoro-2-pyridyl)-4-methyl-4H-[1,2,4]triazolo[1,5-a][1,4]benzodiazepin-2-yl]-[(3S)-3-fluoropyrrolidin-1-yl]methanone]	7.8 nM	48.4 nM	48.4 nM	3720 nM	76.8	1.89	129%	2.29
